Reference: patent publication US20250263370A1 (Tay Therapeutics Limited, priority 2022, published 2025)
In brackets after ≈: the same amount, converted by molar mass.

Experiment: Thermodynamic solubility in FaSSIF pH 6.5 buffer
Assay type: physicochemical
Settings: FaSSIF buffer, 25 °C, pH 6.5, fassif, thermodynamic from solid, Method 1 (UV-vis, 25° C., 24 hrs)
Protocol: FaSSIF v2 buffer is freshly prepared prior to use according to the suppliers' instructions and the pH adjusted to 6.5 using 1 M NaOH or 1 M HCl as required. From 1 mM working solution of test compound in DMSO, the λmax of the test compound is determined by scanning from 200 nm to 700 nm, in 1 nm steps with an EPOCH UV/Visible spectrophotometer (Biotek Instruments Inc.). A 12-point standard curve of compound concentration versus absorption at λmax is generated via two-fold serial dilutions of the 1 mM working solution with DMSO. Approximately 1 mg of test compound is accurately weighed into an Eppendorf tube and the appropriate volume of FaSSIF buffer is added to make a nominal concentration of 1 mg/mL. The tube is incubated on a rotator at 20 rpm, 25° C. for 24 hrs. Samples are then filtered using 0.45 μm filters (Sartorious, CAT #1776C) and the filtrate subjected to UV-vis spectroscopy analysis. The absorption at λmax is compared to the standard curve to determine the concentration of compound in solution after 24 hours.
FaSSIF buffer was prepared according to the suppliers' instructions and the pH adjusted to 6.5 using 1 M NaOH or 1 M HCl as required. […] A stir stick was added to each vial and vials sealed with a moulded PTDE/SIL 96-well plate cover. The plate was shaken at 25° C. at 1,100 rpm using an Eppendorf Thermomixer Comfort plate shaker. The plates were filtered using a vacuum manifold and diluted with a mixture of H2O and acetonitrile containing internal standard. The concentration of the test compound in the filtrate was determined by LCMS analysis with reference to the internal standards to determine the solubility in the buffer.

## CNC(=O)c1[nH]c(C(=O)NC2CCC2)cc1O[C@@H](C)c1ccccc1 (stereo in doubt) [Example 101, N^5-cyclobutyl-N^2-methyl-3-(1-phenylethoxy)-1H-pyrrole-2,5-dicarboxamide]
  solubility thermodynamic at 24 h: 193 µM (≈ 65.9 µg/mL)
